For orientation: EC50 means the concentration that produces a half-maximal response. Lower therefore signals greater potency. The IC50 is the concentration at which inhibition is half-maximal.

One assay deals with HCV replicon 1a. Nature of the assay: Cell-based HCV 1a RNA replicon assay. Particulars: Hepatitis C virus, 72 h; Huh-7-derived replicon cells, 3 day incubation, HCV RNA by RT-PCR. As for the experimental part: (§1) These cells were used to establish a sensitive HCV RNA replication cell-based assay for testing candidate test compounds.
(§2) Huh7 cells that stably maintain a subgenomic HCV replicon were established as previously described (Lohman et al. 1999; WO 02/052015). The cells were seeded into a 96 well cell culture cluster at 1×10^4 cells per well in DMEM complemented with 10% FBS, PenStrep (Life Technologies) and […] Geneticin. Cells were incubated in a 5% CO2 incubator at 37° C. until addition of various concentrations of the test compound.
(§3) The test compound was prepared for use in the assay as follows. The test compound in 100% DMSO was added diluted in assay Medium for a final DMSO concentration of 0.5% and the solution was sonicated for 15 min and filtered through a […] Millipore Filter Unit. Serial dilutions of the test compounds were prepared using Assay Medium (containing 0.5% DMSO).
(§4) Cell culture medium was aspirated from the 96-well plate containing the cells and the appropriate dilution of test compound in assay medium was transferred to independent wells of the cell culture plate which was incubated at 37° with 5% CO2.
(§5) Following a 3 day-incubation period, the cells were washed with PBS and total cellular RNA was extracted with the RNeasy Mini Kit® and Qiashredder® from Qiagen. RNA from each well was eluted in 50 μL of H2O. RNA was quantified by optical density at 260 nm on the Cary 1E® UV-Visible spectrophotometer. The HCV RNA replicon copy number was evaluated by real-time RT-PCR with the Abi Prism® 7700 Sequence Detection System. The TAQMAN E® RT-PCR kit provides a system for the detection and analysis of RNA. Direct detection of the reverse transcription polymerase chain reaction (RT-PCR) product with no downstream processing was accomplished by monitoring the increase in fluorescence of a dye-labeled DNA probe. The nucleotide sequence of both primers and probe was located in the 5′ region of the HCV genome. The replicon copy number was then evaluated using a standard curve made with known amounts of replicon copy (supplemented with 50 ng of wild type Huh-7 RNA) assayed in the same reaction mix. The following thermal cycle parameters were used for the RT-PCR reaction on the ABI Prism® 7700 Sequence Detection System. Conditions were optimized for HCV detection. Quantification is based on the threshold cycle, where the amplification plot crosses a defined fluorescence threshold. Comparison of the threshold cycles provides a highly sensitive measure of relative template concentration in different samples. Monitoring during early cycles, when PCR fidelity is at its highest, provides precise data for accurate quantification. The relative template concentration can be converted to real numbers by using the standard curve of HCV with known number of copy.
(§6) The level of inhibition (% inhibition) of each well containing test compound was calculated with the following equation (CN═HCV Replicon copy number): [formula]
(§7) The calculated % inhibition values were then used to determine EC50, slope factor (n) and maximum inhibition (Imax) by the non-linear regression routine NLIN procedure of SAS using the following equation: [formula]
For orientation: Replicon systems follow genome replication, usually without infectious particles.

Assay [1] deals with T1, HCV 1b NS3-NS4A heterodimer protein (UniProt P26662).
T1 construct: fused on or other part: 28 extra N-terminal residues with a hexahistidine tag and an rTEV cleavage site
T1 sequence (P26662 1027-1657, one chain of several): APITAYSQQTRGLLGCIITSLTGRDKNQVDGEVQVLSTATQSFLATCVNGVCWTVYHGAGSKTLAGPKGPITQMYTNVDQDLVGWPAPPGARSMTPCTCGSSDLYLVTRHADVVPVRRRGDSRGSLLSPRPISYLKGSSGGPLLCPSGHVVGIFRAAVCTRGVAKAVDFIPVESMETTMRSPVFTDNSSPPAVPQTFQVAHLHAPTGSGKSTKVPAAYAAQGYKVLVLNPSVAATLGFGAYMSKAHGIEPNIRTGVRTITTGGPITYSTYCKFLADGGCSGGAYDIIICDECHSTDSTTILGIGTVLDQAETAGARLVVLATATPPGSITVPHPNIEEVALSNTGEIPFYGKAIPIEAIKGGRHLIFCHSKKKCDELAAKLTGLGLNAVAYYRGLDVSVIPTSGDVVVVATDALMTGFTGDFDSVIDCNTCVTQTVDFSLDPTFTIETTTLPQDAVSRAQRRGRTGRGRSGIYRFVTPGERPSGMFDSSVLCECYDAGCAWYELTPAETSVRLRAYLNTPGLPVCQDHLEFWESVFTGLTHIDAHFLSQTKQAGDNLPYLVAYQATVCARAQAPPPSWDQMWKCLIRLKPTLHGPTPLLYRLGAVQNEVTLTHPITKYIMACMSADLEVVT
The experiment in a line: In vitro HCV NS3 protease assay (fluorogenic depsipeptide), genotype 1b. Type of assay: biochemical, HCV genotype 1b. Conditions: read-out: IC50 HCV-1b; HCV 1b NS3-NS4A protease.
Description: For production of the HCV genotype 1b NS3-NS4A heterodimer protein, a full-length HCV cDNA was cloned by RT-PCR using RNA extracted from the serum of an HCV genotype 1b infected individual (provided by Dr. Bernard Willems, Hôpital St-Luc, Montréal, Canada). […] For HCV genotype 1a, the DNA encoding NS3-NS4A heterodimer protein was PCR-amplified (forward primer: 5′[sequence]3′ (SEQ ID No.3); reverse primer: 5′[sequence]3′ (SEQ ID No.4)) from the HCV genotype la strain H77 (provided by ViroPharma Inc., Exton, Pa., U.S.) and subcloned as described above. The cloning into the pFastBac™ HTa baculovirus expression vector generated a recombinant fusion protein containing an additional N-terminal 28 residues that comprised a hexahistidine tag and a rTEV protease cleavage site. The Bac-to-Bac™ baculovirus expression system (Gibco/BRL) was used to produce the recombinant baculovirus for protein expression.
His-tagged NS3-NS4A heterodimer protease was expressed by infecting Sf21 insect cells (Invitrogen) at a density of 10^6 cells/mL with the recombinant baculovirus at a multiplicity of infection of 0.1-0.2 at 27° C. The infected culture was harvested 48 to 64 h later by centrifugation at 4° C. The cell pellet was homogenized in 50 mM sodium phosphate, pH 7.5, 40% glycerol (w/v), 2 mM β-mercaptoethanol. His-NS3-NS4A heterodimer protease was then extracted from the cell lysate with 1.5% NP-40, 0.5% Triton X-100, 0.5M NaCl, and a DNase treatment. […]
The fluorescence was monitored using the BMG POLARstar Galaxy 96-well plate reader with an excitation filter of 320 nm, and an emission filter of 405 nm. The level of inhibition (% inhibition) of each well containing test compound was calculated with the following equation (FU=fluorescence unit): [formula]
The calculated % inhibition values were then used to determine IC50, slope factor (n) and maximum inhibition (Imax) by the non-linear regression routine NLIN procedure of SAS using the following equation: [formula]

Assay [2] concerns the target T2, GBV-B NS3-NS4A heterodimer protein (Hepatitis GB virus B, UniProt Q69422).
T2 construct: The full length GBV-B NS3/NS4A protease gene was isolated from infected tamarin serum; made in house; host or cells: E. coli BL21 DE3 pLysS (pET-29)
The experiment in a line: In vitro GBV-B NS3 protease assay (HPLC). Format: biochemical.
Protocol: The depsipeptide substrate used to assess inhibition of the protease activity of GBV-B NS3-NS4A heterodimer protein was Ac-DED(EDANS)EE-Abu[C(O)—O] ASK(DABCYL)-NH2 (SEQ ID No. 16) This substrate is cleaved between the aminobutyric (Abu) and the alanine residues and products of the reaction were analyzed by HPLC. The protease activity was assayed in 50 mM Tris-HCl;, pH 8.0, 0.25M sodium citrate, 0.01 % n-dodecyl-β-D-maltoside, 1 mM TCEP. The assay was performed in a Microfluor®2 White U-Bottom Microtiter® plate. 5 μM of the substrate and various concentrations of the test compounds were incubated with 0.4 nM of GBV-B NS3-NS4A heterodimer protein for 2 hours at 23° C. under gentle agitation. […] The reaction was terminated by the addition of a 1M 2-[N-morpholino]ethanesulfonic acid solution at pH 5.8. For quantification, the cleavage products and the substrate were separated by HPLC on a Perkin-Elmer® 3×3CR C8 column. The separation was accomplished by initially eluting at 3.5 mL/min with an aqueous solution containing 0.05% phosphoric acid and 3 mM SDS. A 0 to 45% acetonitrile linear gradient in 0.05% phosphoric acid was then applied for 10 minutes. The absorbance was monitored at 210 nm.

In the next assay the test system is HCV replicon 1b. Nature of the assay: Cell-based HCV 1b RNA replicon assay. Conditions: Hepatitis C virus, 72 h; Huh-7-derived replicon cells, 3 day incubation, HCV RNA by RT-PCR. The method, then: as §1, §2, §3, §4, §5, §6, §7

T2 sequence (Q69422 1565-1615): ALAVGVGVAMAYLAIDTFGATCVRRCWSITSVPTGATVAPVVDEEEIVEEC
T2 sequence (Q69422 941-1564): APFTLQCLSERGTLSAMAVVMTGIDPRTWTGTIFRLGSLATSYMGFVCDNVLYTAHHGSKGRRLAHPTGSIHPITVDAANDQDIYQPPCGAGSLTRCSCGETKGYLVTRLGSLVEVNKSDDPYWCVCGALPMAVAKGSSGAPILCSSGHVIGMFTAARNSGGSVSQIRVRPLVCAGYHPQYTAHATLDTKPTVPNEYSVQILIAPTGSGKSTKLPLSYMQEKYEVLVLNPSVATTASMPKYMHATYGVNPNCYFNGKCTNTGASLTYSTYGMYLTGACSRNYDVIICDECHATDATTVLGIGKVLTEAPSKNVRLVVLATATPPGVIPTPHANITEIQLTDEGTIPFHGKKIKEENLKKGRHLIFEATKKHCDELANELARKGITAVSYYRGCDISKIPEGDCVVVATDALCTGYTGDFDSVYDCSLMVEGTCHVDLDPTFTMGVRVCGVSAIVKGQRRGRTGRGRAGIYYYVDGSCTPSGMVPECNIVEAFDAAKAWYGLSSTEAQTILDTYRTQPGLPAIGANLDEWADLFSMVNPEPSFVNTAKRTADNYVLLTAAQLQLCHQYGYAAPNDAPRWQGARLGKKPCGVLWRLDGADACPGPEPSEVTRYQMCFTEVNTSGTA

Turning to `COc1ccc2c(O[C@@H]3C[C@H]4C(=O)N[C@]5(C(=O)O)CC5/C=C\CCCCC[C@H](NC(=O)OC(C)(C)C)C(=O)N4C3)cc(-c3ccccc3)nc2c1` (stereo partly drawn) [II], the EC50 in the assay with HCV replicon 1a was found to be 34 nM; with HCV replicon 1b, 27 nM. The IC50 turned out to be 8.9 nM in assay [1] and 36500 nM in assay [2].
Regarding `COc1ccc2c(O[C@@H]3C[C@H]4C(=O)N[C@]5(C(=O)O)CC5/C=C\CCCCC[C@H](NC(=O)OC(C)(C)C)C(=O)N4C3)cc(-c3csc(NC(C)=O)n3)nc2c1` (stereo partly drawn) [III], the EC50 in the assay with HCV replicon 1a turned out to be 4.5 nM; with HCV replicon 1b it was 4.7 nM. Further, the values for the IC50 in assay [1] and in assay [2] were 4.2 nM and 31000 nM, respectively.
For `COc1ccc2c(O[C@@H]3C[C@H]4C(=O)N[C@]5(C(=O)O)CC5/C=C\CCCCC[C@H](NC(=O)OC5CCCC5)C(=O)N4C3)cc(-c3csc(NC(C)C)n3)nc2c1` (stereo partly drawn) [IV], in that order: 2.1 nM, 1 nM, 3.4 nM and 16000 nM.

The values are drawn from US20050159345A1 (Boehringer Ingelheim International GmbH, priority 2002, published 2005).
